We go through six compounds from patent publication US12180207B2 (ARRAY BIOPHARMA INC., priority 2018, dated 2024).

The target in test [1] is recombinant human FGFR1 catalytic domain (amino acids 308-731) (Homo sapiens (Human), UniProt P11362). In words: FGFR1 enzyme activity assay (LanthaScreen TR-FRET). It counts as biochemical. The note with it: 20 min incubation at 22° C., average of multiple determinations if made, read-out: FGFR1 Enz FRET IC50. The method in brief: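 His-tagged FGFR1 kinase domain with 100 nM Alexa Fluor 647-poly-GT peptide and ATP in pH 7.5 HEPES/MgCl2 buffer with 2% DMSO, 20 min at 22 °C. Quenched with EDTA plus 2 nM Eu-PY20 antibody and read after 60 min. IC50 comes from a 4-parameter fit of percent of control.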

Test [2] deals with FGFR1 (SEQ ID NO: 1, amino acids 458-765) (Homo sapiens (Human), UniProt P11362). In words: LC/MS FGFR1 kobs assay (covalent protein modification). Format: binding. The note with it: 500 nM FGFR1, 3 μM compound. How it is done: The LC/MS FGFR1 and FGFR3 kobs assays were conducted as follows. […] At each time point, the reaction was quenched with 20 μL of 0.4% formic acid. The extent of protein modification by each compound was determined by LC/MS on an Agilent Technologies 6520 Q-TOF LC/MS. Protein signals were then automatically deconvoluted using Agilent Masshunter software. Deconvoluted mass signals were exported to Tibco Spotfire data analysis program for further processing and normalization.
Data analysis included five steps. First, the signals for the “DMSO Controls” were analyzed to determine the percent of signal associated with unmodified FGFR1 or FGFR3 at each time point. Next, the percent of the signal associated with the covalent modification was determined. Third, the average nonmodified “DMSO Control” signal was used to normalize the modified protein signals at each time point. The percent of unmodified protein was fit to an exponential decay model where A0 is the Percent Unmodified at the start of the reaction, and kobs is the observed rate constant over the time period.

For test [3], the target named is dephosphorylated FGFR1 (SEQ ID NO: 1, amino acids 458 to 765) (Homo sapiens (Human), UniProt P11362). The test can be described thus: FGFR enzyme binding assay (HTRF tracer displacement), FGFR1. The note with it: 5 nM dephosphorylated FGFR1, average of multiple determinations if made. The method in brief: (§1)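 Compounds were tested for displacement of a tracer from human FGFR kinase in a time-resolved FRET binding format. After 60 minutes at 22° C, signal was read at two wavelengths and converted to percent of control, normalised between untreated wells and 1 μM reference inhibitor.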
For orientation: Time-resolved FRET reads energy transfer from a long-lived donor to a nearby acceptor.

The target in test [4] is recombinant human FGFR2 cytoplasmic domain (amino acids 403-822) (Homo sapiens (Human), UniProt P21802). The test can be described thus: FGFR2 enzyme activity assay (LanthaScreen TR-FRET). Format: biochemical. The note with it: 15 μM ATP, 20 min incubation at 22° C., average of multiple determinations if made, read-out: FGFR2 Enz FRET IC50. The method in brief: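 His-tagged FGFR2 cytoplasmic domain ([…]) with 100 nM Alexa Fluor 647-poly-GT peptide and 15 μM ATP in HEPES/MgCl2/Triton buffer, pH 7.5, 2% DMSO, 20 min at 22 °C. EDTA-quenched, Eu-PY20 antibody added, TR-FRET read after 60 min.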

In test [5] the target is phosphorylated FGFR3 (SEQ ID NO: 5, amino acids 449 to 759) (Homo sapiens (Human), UniProt P22607). The test can be described thus: FGFR enzyme binding assay (HTRF tracer displacement), FGFR3. The note with it: 5 nM phosphorylated FGFR3, average of multiple determinations if made. The method in brief: as §1
The target in test [6] is FGFR3 (SEQ ID NO: 5, amino acids 449-759) (Homo sapiens (Human), UniProt P22607). The test can be described thus: LC/MS FGFR3 kobs assay (covalent protein modification). It counts as binding. The note with it: 500 nM FGFR3, 3 μM compound. The method in brief: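 Covalent modification of FGFR1 (aa 458-765) or FGFR3 (aa 449-759) followed over time; reactions quenched with 0.4% formic acid and analysed by Q-TOF LC/MS after deconvolution. Percent unmodified protein, normalized to DMSO controls, fit to exponential decay to give kobs; averaged where repeated.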

The target of test [7] is recombinant human FGFR3 (amino acids R397-T806) (Homo sapiens (Human), UniProt P22607). The test can be described thus: FGFR3 enzyme activity assay (LanthaScreen TR-FRET). Format: biochemical. The note with it: 25 μM ATP, 10 min incubation at 22° C., average of multiple determinations if made, read-out: FGFR3 Enz FRET IC50. A digest of the protocol:
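GST-HIS6-tagged human FGFR3 (R397-T806) was reacted with 100 nM Alexa Fluor 647-Poly-GT substrate and 25 μM ATP plus compound in HEPES/MgCl2/Triton buffer, pH 7.5, 2% DMSO, for 10 min at 22 °C.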

Sequence of phosphorylated FGFR3 (SEQ ID NO: 5, amino acids 449 to 759) (P22607 449-759): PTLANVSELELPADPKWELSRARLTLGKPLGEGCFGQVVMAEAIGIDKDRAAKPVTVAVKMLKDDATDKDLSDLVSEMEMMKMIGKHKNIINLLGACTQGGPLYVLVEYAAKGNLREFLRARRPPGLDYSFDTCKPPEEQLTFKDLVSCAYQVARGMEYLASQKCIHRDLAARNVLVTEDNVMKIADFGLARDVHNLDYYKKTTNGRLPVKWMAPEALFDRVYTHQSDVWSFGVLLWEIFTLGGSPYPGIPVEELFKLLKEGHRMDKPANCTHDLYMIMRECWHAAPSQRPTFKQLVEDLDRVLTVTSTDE
Sequence of FGFR3 (SEQ ID NO: 5, amino acids 449-759) (P22607 449-759): as above
Sequence of FGFR1 (SEQ ID NO: 1, amino acids 458-765) (P11362 458-765): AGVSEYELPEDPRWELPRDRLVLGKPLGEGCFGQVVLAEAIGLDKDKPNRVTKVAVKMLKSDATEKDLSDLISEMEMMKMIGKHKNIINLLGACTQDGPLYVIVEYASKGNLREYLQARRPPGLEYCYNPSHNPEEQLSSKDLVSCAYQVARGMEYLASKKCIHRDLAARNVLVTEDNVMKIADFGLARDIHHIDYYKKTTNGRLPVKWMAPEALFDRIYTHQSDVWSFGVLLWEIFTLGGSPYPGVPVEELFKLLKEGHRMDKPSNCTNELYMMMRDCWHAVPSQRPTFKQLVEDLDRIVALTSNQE
Sequence of dephosphorylated FGFR1 (SEQ ID NO: 1, amino acids 458 to 765) (P11362 458-765): as above
Sequence of recombinant human FGFR2 cytoplasmic domain (amino acids 403-822) (P21802 402-821): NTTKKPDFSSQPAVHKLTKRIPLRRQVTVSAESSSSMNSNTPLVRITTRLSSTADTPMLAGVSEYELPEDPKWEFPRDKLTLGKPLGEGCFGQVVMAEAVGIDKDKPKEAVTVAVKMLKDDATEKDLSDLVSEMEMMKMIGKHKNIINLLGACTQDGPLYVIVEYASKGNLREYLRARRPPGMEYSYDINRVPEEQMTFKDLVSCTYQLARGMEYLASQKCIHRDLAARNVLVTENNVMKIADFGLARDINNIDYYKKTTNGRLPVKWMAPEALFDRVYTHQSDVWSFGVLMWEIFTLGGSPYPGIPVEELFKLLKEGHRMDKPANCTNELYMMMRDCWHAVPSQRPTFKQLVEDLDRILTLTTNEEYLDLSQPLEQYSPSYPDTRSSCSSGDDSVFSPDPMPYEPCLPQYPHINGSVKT
Sequence of recombinant human FGFR3 (amino acids R397-T806) (P22607 397-806): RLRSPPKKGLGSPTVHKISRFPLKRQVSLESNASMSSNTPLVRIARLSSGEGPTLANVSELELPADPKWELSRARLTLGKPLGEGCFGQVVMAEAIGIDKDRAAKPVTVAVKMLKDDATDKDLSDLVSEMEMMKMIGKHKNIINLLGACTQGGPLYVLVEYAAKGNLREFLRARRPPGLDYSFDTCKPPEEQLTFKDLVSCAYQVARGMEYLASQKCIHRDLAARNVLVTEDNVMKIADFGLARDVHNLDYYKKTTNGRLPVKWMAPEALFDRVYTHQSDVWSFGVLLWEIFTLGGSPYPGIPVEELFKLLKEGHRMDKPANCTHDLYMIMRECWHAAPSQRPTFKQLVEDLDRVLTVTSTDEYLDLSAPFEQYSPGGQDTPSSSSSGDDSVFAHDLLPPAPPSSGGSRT
Sequence of recombinant human FGFR1 catalytic domain (amino acids 308-731) (P11362 other isoform, or with tags, fused parts or gaps): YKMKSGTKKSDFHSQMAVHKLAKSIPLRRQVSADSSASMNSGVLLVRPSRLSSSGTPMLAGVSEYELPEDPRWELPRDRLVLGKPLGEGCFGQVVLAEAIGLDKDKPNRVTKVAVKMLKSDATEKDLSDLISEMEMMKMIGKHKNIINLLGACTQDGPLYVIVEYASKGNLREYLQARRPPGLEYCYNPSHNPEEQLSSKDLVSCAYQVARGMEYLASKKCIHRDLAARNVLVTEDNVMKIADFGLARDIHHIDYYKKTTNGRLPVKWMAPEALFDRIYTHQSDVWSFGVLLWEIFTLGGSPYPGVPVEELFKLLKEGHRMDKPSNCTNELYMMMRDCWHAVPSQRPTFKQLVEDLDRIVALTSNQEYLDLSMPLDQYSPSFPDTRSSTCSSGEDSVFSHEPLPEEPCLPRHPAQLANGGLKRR

One may read the IC50 as the concentration at which inhibition is half-maximal. As to `C=CC(=O)N1CC[C@@H](C(=O)N2CC[C@@H](n3cc(-c4cc(OC)c5c(C#N)cnn5c4)cn3)C2)C1` [Example 58, 6-(1-((R)-1-((R)-1-acryloylpyrrolidine-3-carbonyl)pyrrolidin-3-yl)-1H-pyrazol-4-yl)-4-methoxypyrazolo[1,5-a]pyridine-3-carbonitrile], the half-maximal inhibitory concentration (IC50) in test [1] is 55 nM; in test [3] it was 290 nM; in test [4] it was 8 nM; in test [5], 41 nM; in test [7] it was 8 nM. The “FGFR1 Enz kobs” value in test [2] worked out at 0.00058 min⁻¹. The “FGFR3 Enz kobs” value in test [6] was 0.00158 min⁻¹.
As for `C=CC(=O)N1CCC[C@H](C(=O)N2CC[C@H](n3cc(-c4cc(OC)c5c(C#N)cnn5c4)cn3)C2)C1` [Example 63, 6-(1-((S)-1-((S)-1-acryloylpiperidine-3-carbonyl)pyrrolidin-3-yl)-1H-pyrazol-4-yl)-4-methoxypyrazolo[1,5-a]pyridine-3-carbonitrile], the IC50 worked out at 26 nM in test [1]; 199 nM in test [3]; 7 nM in test [4]; 62 nM in test [5]; 3 nM in test [7]. The “FGFR1 Enz kobs” value in test [2] was determined as 0.0005 min⁻¹. In test [6], the “FGFR3 Enz kobs” value was 0.0013 min⁻¹.
For `C=CC(=O)Nc1cccc(C(=O)N2CC[C@H](n3cc(-c4cc(OC)c5c(C#N)cnn5c4)cn3)C2)c1` [Example 67, (S)-N-(3-(3-(4-(3-cyano-4-methoxypyrazolo[1,5-a]pyridin-6-yl)-1H-pyrazol-1-yl)pyrrolidine-1-carbonyl)phenyl)acrylamide], the concentration for half-maximal inhibition (IC50) was 8 nM in test [1]; 47 nM in test [3]; 3 nM in test [4]; 12 nM in test [5]; 5 nM in test [7]. The “FGFR1 Enz kobs” value in test [2] was found to be 0.00146 min⁻¹. Moreover, the “FGFR3 Enz kobs” value in test [6] is 0.00341 min⁻¹.
Consider `C=CC(=O)N1CC[C@@H](C(=O)N2CC[C@H](n3cc(-c4cc(OC)c5c(C#N)cnn5c4)cn3)C2)C1` [Example 72, 6-(1-((S)-1-((R)-1-acryloylpyrrolidine-3-carbonyl)pyrrolidin-3-yl)-1H-pyrazol-4-yl)-4-methoxypyrazolo[1,5-a]pyridine-3-carbonitrile], for which the IC50 in test [1] stood at 25 nM; in test [3], 36 nM; in test [4] it was 5 nM; in test [5] it was 7 nM; in test [7], 3 nM. Besides, the “FGFR1 Enz kobs” value in test [2] is 0.00049 min⁻¹. Besides, the “FGFR3 Enz kobs” value in test [6] was found to be 0.00117 min⁻¹.
For the compound `C=CC(=O)N1CCC(C(=O)N2CC(n3cc(-c4cc(OC)c5c(C#N)cnn5c4)cn3)C2)CC1` [Example 75, 6-(1-(1-(1-acryloylpiperidine-4-carbonyl)azetidin-3-yl)-1H-pyrazol-4-yl)-4-methoxypyrazolo[1,5-a]pyridine-3-carbonitrile], the IC50 in test [1] turned out to be 39 nM; in test [3], 120 nM; in test [4] it was 14 nM; in test [5], 22 nM; in test [7], 13 nM. Also, the “FGFR1 Enz kobs” value in test [2] was 0.00081 min⁻¹. For the same compound, in test [6], the “FGFR3 Enz kobs” value came out at 0.002 min⁻¹.
Consider `C=CC(=O)N[C@H]1C[C@@H](C(=O)N2CC(n3cc(-c4cc(OC)c5c(C#N)cnn5c4)cn3)C2)C1` [Example 80, N-((1s,3s)-3-(3-(4-(3-cyano-4-methoxypyrazolo[1,5-a]pyridin-6-yl)-1H-pyrazol-1-yl)azetidine-1-carbonyl)cyclobutyl)acryl-amide], for which the IC50 came out at 26 nM in test [1]; 174 nM in test [3]; 7 nM in test [4]; 22 nM in test [5]; 7 nM in test [7]. For the same compound, the “FGFR1 Enz kobs” value in test [2] was 0.00024 min⁻¹. Also, in test [6], the “FGFR3 Enz kobs” value came out at 0.00111 min⁻¹.
